Tests used:
Assay type in all cases: in vivo, rat
[1] = test system: rats with non-alcoholic steatohepatitis induced by high-fat diet; experiment: Liver indices, non-alcoholic steatohepatitis model induced by high-fat diet
Experimental: (§1) The normal control group was fed a standard diet for twelve weeks while the other groups were fed a high-fat diet consisting of 88% basal diet+10% lard+2% cholesterol for twelve weeks. After establishing the model, the drug groups received their respective treatments at a dosage of 10 ml/kg while the normal and model groups received an equal volume of 0.5% CMC-Na solution. The rats were provided with ad libitum access to water and food, while the animal chamber was maintained under controlled conditions of quietness, natural lighting, a temperature of 25±0.5° C., and a humidity level of 55±5%. The rats' body weights were measured once per week and recorded.
(3) Liver indices was determined by dividing the wet weight of the liver by the body weight of rats and multiplying by 100%, after liver tissue was isolated, washed with normal saline, dried using filter paper, and weighed following blood sampling from the abdominal aorta. (4) HE staining and oil red staining were performed on liver tissue samples obtained from the abdominal aorta of rats. The tissue was fixed in 10% neutral formalin, followed by embedding, slicing, dewaxing, staining, transparency treatment, and sealing using routine procedures. Microscopic examination was conducted to observe the pathological changes in rat liver tissues across different groups. Additionally, the NASH-CRN scoring system was employed to assess NAS scores. (5) Detection of Proteins Associated with Non-Alcoholic Steatohepatitis

[2] = test system: rats with nonalcoholic steatohepatitis induced by a high-fat diet and CCl4; experiment: Serum biochemical indices, high-fat diet and CCl4 model; settings: end of tenth week of administration, positive control group
Experimental: (§2) Starting from the seventh week, they received subcutaneous injections of a 30% CCl4 olive oil solution at a dosage of 0.2 ml/100 g behind their back twice per week for a total of four times. Once the model was successfully replicated, the corresponding drugs were administered orally (10 ml/kg) in each treatment group, and both the normal control group and the model group received equal volumes of a 0.5% CMC-Na solution once daily for ten consecutive weeks. Throughout the experimental period, the rats were provided with ad libitum access to food and water, while the animal chamber was maintained under controlled conditions of quietness, natural lighting, a temperature of 25±0.5° C., and a humidity level of 55±5%. The rats' body weights were measured once per week and recorded.
(§3) At the end of the tenth week of administration, all rats underwent a 16-hour fasting period following their final administration and were intraperitoneally injected with a 20% ulinastatin solution (10 ml/kg) for anesthesia. Subsequently, blood samples were collected from the abdominal aorta and allowed to stand for one hour, and then centrifuged at 4° C. for fifteen minutes at a speed of 3000 r/min. Finally, the upper serum was stored at −80° C. Following the instructions provided with the biochemical index detection kit, levels of HDL-C, LDL-C, NEFA, AST, ALT, UA, TC, TG, PCIII, IV-C LN and HA in rat serum were determined.
According to the kit instructions, the concentration of fasting plasma glucose (FPG) in serum was determined using colorimetry, while the concentration of fasting insulin (FINS) in serum was measured through radioimmunoassay.

[3] = test system: rats with nonalcoholic steatohepatitis induced by a high-fat diet and CCl4; experiment: Liver histopathology (HE, oil red, Masson staining), high-fat diet and CCl4 model; settings: positive control groups and NR218 high-, medium-, low-dose groups
Experimental: as §2, with “The normal control group were fed a standard diet while the other groups were exclusively fed a high-fat diet consisting of 88% basal diet +10% lard +2% cholesterol for the initial six weeks. Starting” for “Starting”
After collecting blood samples from the abdominal aorta of rats, the liver tissue was isolated and fixed in a 10% neutral formalin solution. Following standard procedures for embedding, sectioning, dewaxing, staining, clearing, and sealing, the liver tissues were subjected to HE (hematoxylin-eosin), Masson's trichrome, and oil red staining techniques respectively. […]

[4] = Body weight of rats, high-fat diet non-alcoholic steatohepatitis model; settings: positive control group, in g (unit assumed)
Experimental: as §1
The rats were weighed weekly to monitor the fluctuations in body weight within each experimental group.

[5] = test system: rats with nonalcoholic steatohepatitis induced by a high-fat diet and CCl4; experiment: Four indices of serum hepatic fibrosis, high-fat diet and CCl4 model; settings: positive control group
Experimental: as §2, §3

[6] = test system: rats with nonalcoholic steatohepatitis induced by a high-fat diet and CCl4; experiment: Liver indices, non-alcoholic steatohepatitis model induced by high-fat diet and CCl4; settings: positive control group
Experimental: as §2, with “The normal control group were fed a standard diet while the other groups were exclusively fed a high-fat diet consisting of 88% basal diet +10% lard +2% cholesterol for the initial six weeks. Starting” for “Starting”
After blood sampling from the abdominal aorta of rats, the liver tissue was isolated, rinsed with normal saline solution, dried using filter paper, weighed accurately, and subsequently calculated the Liver indices: Liver indices=wet liver weight/body weight×100%.

[7] = Body weight of rats, high-fat diet + CCl4 non-alcoholic steatohepatitis model; settings: positive control group, in g (unit assumed)
Experimental: as §2, with “The normal control group were fed a standard diet while the other groups were exclusively fed a high-fat diet consisting of 88% basal diet +10% lard +2% cholesterol for the initial six weeks. Starting” for “Starting”
The weight changes of rats in each group were compared by conducting weekly weigh-ins after the experiment.

Structure (SMILES): CC[C@H](C)C(=O)O[C@H]1C[C@@H](C)C=C2C=C[C@H](C)[C@H](CC[C@@H]3C[C@@H](O)CC(=O)O3)[C@H]21 [Lovastatin]
- liver indices versus model group (in words) ([1]; NR218 at high, medium and low doses, P<0.01 or P<0.05): significant decrease compared to the model group
- Liver Indices ([1]; high-fat diet model, positive control group): 3.23 ± 0.56 %
- HOMA-IR ([2]; FPG x FINS/22.5): 5.50
- ALT ([2]; serum): 43.66 U/L
- AST ([2]; serum): 69.18 U/L
- HDL-C ([2]; serum): 1.31 mmol/L
- LDL-C ([2]; serum): 1.20 mmol/L
- NEFA ([2]; serum): 0.76 mmol/L
- Oil red O staining of liver tissue (in words) [3]: significantly ameliorated steatosis severity and reduced lipid droplet content
- body weight ([4]; week 0 (pre-administration)): 196.21 ± 4.57
- body weight ([4]; week 1 (pre-administration)): 258.64 ± 9.56
- body weight ([4]; week 2 (pre-administration)): 315.91 ± 19.58
- body weight ([4]; week 3 (pre-administration)): 356.16 ± 26.94
- body weight ([4]; week 4 (pre-administration)): 392.60 ± 32.93
- body weight ([4]; week 5 (pre-administration)): 432.81 ± 38.14
- body weight ([4]; week 6 (pre-administration)): 464.35 ± 45.01
- body weight ([4]; week 7 (pre-administration)): 482.88 ± 44.36
- body weight ([4]; week 8 (pre-administration)): 503.37 ± 45.95
- body weight ([4]; week 9 (pre-administration)): 530.26 ± 48.68
- body weight ([4]; week 10 (pre-administration)): 548.47 ± 45.65
- body weight ([4]; week 11 (pre-administration)): 547.23 ± 54.49
- body weight ([4]; week 12 (pre-administration)): 543.06 ± 66.86
- body weight ([4]; week 13): 534.63 ± 62.63
- body weight ([4]; week 14): 542.19 ± 52.03
- body weight ([4]; week 15): 543.36 ± 47.44
- body weight ([4]; week 16): 547.25 ± 37.26
- body weight ([4]; week 17): 561.64 ± 53.62
- body weight ([4]; week 18): 593.39 ± 48.55
- body weight ([4]; week 19): 615.74 ± 52.23
- body weight ([4]; week 20): 600.22 ± 50.84
- IV-C [5]: 15.59 ± 7.47 µg/L
- PC-III [5]: 10.52 ± 2.34 µg/L
- Liver Indices [6]: 3.56 ± 0.49%
- body weight ([7]; week 1): 195.70 ± 6.24
- body weight ([7]; week 2): 253.01 ± 9.37
- body weight ([7]; week 3): 315.37 ± 15.71
- body weight ([7]; week 4): 368.78 ± 19.25
- body weight ([7]; week 5): 409.85 ± 24.64
- body weight ([7]; week 6): 439.81 ± 28.73
- body weight ([7]; week 7): 470.75 ± 34.51
- body weight ([7]; week 8): 491.21 ± 35.35
- body weight ([7]; week 9): 491.46 ± 34.37
- body weight ([7]; week 10): 503.05 ± 37.51
- body weight ([7]; week 11): 486.62 ± 44.00
- body weight ([7]; week 12): 506.22 ± 46.50
- body weight ([7]; week 13): 530.00 ± 54.43
- body weight ([7]; week 14): 531.16 ± 48.26
- body weight ([7]; week 15): 525.60 ± 53.49
- body weight ([7]; week 16): 539.63 ± 46.78
- body weight ([7]; week 17): 555.78 ± 49.24
- body weight ([7]; week 18): 561.12 ± 51.49

Reference: patent US20250302795A1, “SMALL MOLECULE COMPOUNDS WITH NEGATIVE REGULATORY EFFECTS ON Nrf2 SIGNALING [sequence] AND THEIR POTENTIAL APPLICATIONS” (Beijing Hebabiz Biotechnology Co., Inc., priority 2022, published 2025)
